# Results reported in patent US20130164847A1, “USE OF A PROTEIN TYROSINE KINASE INHIBITOR FOR INDUCING THE DIFFERENTIATION OF MESENCHYMAL STEM CELLS INTO CARDIOGENIC CELLS” (PHARMICELL. CO., LTD., priority 2010, published 2013).
# Test system: mesenchymal stem cells
# Test: Sandwich ELISA of cTnT after ex vivo differentiation of rat MSCs by PTK inhibitor treatment
# Assay type: cell-based
# Details: rat MSCs cultured 9 days with 1 μM or 10 μM compound
# Description: For the second subculture, MSCs were dispensed on a 60 mm plate at 2×10^5 cells/ml using the identical medium as above, treated with N-(3-bromophenyl)-6,7-diethoxyquinazoline-4-amine (Sigma), a protein tyrosine kinase (PTK) inhibitor, at a final concentration of 1 μM or 10 μM. The cells were cultured for 9 days, wherein the medium was replaced once every three days with a fresh medium containing the aforementioned compound.
# 100 ng of capture antibodies were bound to polyvinyl chloride (PVC) and microtiter high-binding plate (96 wells) at 4° C. overnight. The plate was washed twice with PBS, capture antibodies were blocked with PBS containing 5% BSA overnight under moist air at the room temperature. The plate was washed twice with PBS, and 5 ug of cell lysates together with blocking buffer was added to each well. The plate was incubated at 37° C. for 1.5 hours. The plate was washed 4 times with PBS containing 0.02% Tween-20. Upon adding detector antibodies, the plate was incubated under moist air and the room temperature for 2 hours, and washed 4 times with PBS containing 0.02% Tween-20. […] After 10 minutes, the reaction was stopped by adding 25 ul of 0.1M H2SO4, then the absorbance at 450 nm was immediately measured with an ELISA plate reader (Bio-Rad). […]
smiles,measurement,setting,value
"CCOc1cc2ncnc(Nc3cccc(Br)c3)c2cc1OCC [compound #23, N-(3-bromophenyl)-6,7-diethoxyquinazoline-4-amine]","differentiation into myocardial cells (sandwich ELISA, FIG. 13)",,increases depending on the concentration
same,expression ratio of cardiac troponin T (cTnT),"sandwich ELISA, FIG. 13",increasing expression ratio of cardiac troponin T (cTnT) by the method dependent on dosage
